Assay results reported in patent US20210113522A1, “COUMARIN DERIVATIVE AS ANTI-ASTHMATIC AGENT, PHARMACEUTICAL COMPOSITION THEREOF, ITS PREPARATION AND USE” (I-NOVA MEDICINSKA ISTRAZIVANJA D.O.O., priority 2017, published 2021).

Legend:
[1] = test system: OVA-induced airway inflammation; test: OVA model of lung eosinophilia: differential cell count of bronchoalveolar lavage (BAL) cells; type: in vivo, Balb/c mice; details: vs PBS-treated OVA mice; 1 2 mg/kg preventively or therapeutically, beclomethasone 1 mg/kg, via the airway
Experimental: The study was performed on female 8-week old Balb/c mice. The animals were kept under specific-pathogen-free (SPF) conditions with temperature control and HEPA system for breeding of laboratory animals. Experiments were performed during the light phase of the cycle. 40 mice (n=10/group) were separated into 4 groups:
Group 1: OVA only Group 2: OVA+BECLOMETHASONE (1 mg/kg) Group 3: OVA+Compound 1 (preventively; 2 mg/kg) Group 4: OVA+Compound 1 (therapeutically; 2 mg/kg)
Each group of mice was sensitized on days 0 and 14 with 20 μg/mouse of OVA adsorbed on 2 mg alum. On days 20, 21 and 22 the animals were stimulated with 100 μg/mouse OVA intranasally in a final volume of 50 μL/mouse.
The first group (the positive control) was injected with 0.1 M phosphate-buffered saline (PBS) only.
The second and third groups were treated preventively with compound 1 (2 mg/kg) or beclomethasone (1 mg/kg) on days 18-22 via the airway.
The fourth group was treated therapeutically with compound 1 (2 mg/kg) on days 23-25 via the airway.
We examined the effect of compound 1 treatment in the cell response on OVA-induced airway inflammation. OVA (100 μg/50 μL of PBS) was introduced intranasally (i.n.) 6 days after the second intraperitoneal (i.p.) sensitization with OVA. The treatment with compound 1 (preventively and therapeutically), beclomethasone or PBS only was performed according the treatment schedule; see FIG. 2.
Two days after the last i.n. challenge, BAL cells were collected, and differential cell counts were performed to identify the number of various infiltrating inflammatory cells, see FIGS. 3A, 3B.
Female 8-week old Balb/c mice were obtained from Harlan Farm (Blackthorn, UK). The animals were kept under specific-pathogen-free (SPF) conditions with temperature control and HEPA system for breeding of laboratory animals. The manipulations were approved by the Animal Care Commission at the Institute of Microbiology in accordance with the International regulations (EU Directive 2010/63/EU).
Experiments were performed during the light phase of the cycle. The animals were allowed to adapt to the laboratory for at least 1 h before testing and were used only once. 40 mice (n=10/group) were separated into 4 groups:
Group 1: OVA only Group 2: OVA+beclomethasone (1 mg/kg) Group 3: OVA+compound 1 (preventively; 2 mg/kg) Group 4: OVA+compound 1 (therapeutically; 2 mg/kg)
The experimental procedure was carried out as described in literature reference 22. The procedure is as follows: • (1) using scissors, a small incision in the neck skin on the trachea was made and the skin upwards was opened to expose the salivary glands; the trachea was exposed; • (2) a small semi-excision of the trachea was made to allow a 21-G lavage tube to pass into the trachea; • (3) collection of the lavage fluid—0.5 mL of sterile PBS was injected into the lung. The saline from the first lavage was aspirate; the procedure was repeated 5 times; • (4) all lavages were pooled and were centrifuge for 5 min. at 300×g/4° C. to pellet the cells; the supernatant was discarded; • (5) the pellet was re-suspended in 1.5 mL ice cold PBS and centrifuge for 5 min. at 300×g/4° C.; the supernatant was discarded; • (6) the pellet was re-suspended in 1.0 mL ice cold PBS and the cells were counted; • (7) 50 000 cells were placed on the slide for cytospin; • (8) the cytrospin was performed for 10 min at 700 rpm; and • (9) the slides were air-dried and proceeded to cell staining.
(§1) • (1) fix in Solution A (fixative); • (2) dip 5 times in Solution C (red); • (3) dip 5 times in Solution B (blue); • (4) rinse the slides in distilled water; • (5) air-drying of the slides; • (6) mounted the cover slides; and then • (7) 400 cells were counted under light microscopy. Histology Staining was then Performed as Follows: The lungs from all animals were fixed in 10% formalin (pH 7.4). […]

[2] = test system: OVA-induced airway inflammation; test: OVA model: lung histology (haematoxylin/eosin); type: in vivo, Balb/c mice; details: OVA-challenged mice; 1 2 mg/kg preventively or therapeutically, beclomethasone 1 mg/kg
Experimental: Lungs from the Balb/c mice from the test-groups were isolated and fixed in 10% formalin with […] of the same solution introduced intratracheally prior the overnight fixation. Paraffin sections from the lungs were analyzed using a standard haematoxylin/eosin staining technique.
as §1, with “7.4). Once fixed, tissue is processed as follows: • (1) 70% ethanol for 1 hour; • (2) 80% ethanol for 1 hour; • (3) 95% ethanol for 1 hour; • (4) first absolute ethanol for 1 hour; • (5) second absolute ethanol 1 hour; • (6) first clearing agent (xylene) for 1 hour; • (7) second clearing agent (xylene) for 1 hour; • (8) first wax at 58° C. for 1 hour; • (9) second wax at 58° C. for 1 hour; and • (10) embedding tissues in paraffin blocks. Tissues were sectioned using a microtome at 5 μm slices.” for “7.4).”

SMILES	Eosinophil infiltration into the lungs (BAL) [1]	Lymphocyte infiltration (BAL) [1]	Macrophages infiltration (BAL) [1]	Neutrophil infiltration (BAL) [1]	Eosinophil and other inflammatory cell infiltration in lung histology [2]
O=c1oc2cc(O)cc(O)c2c(O)c1-c1coc2c1c(=O)oc1cc(O)cc(O)c12 [Compound 1, 7,9-dihydroxy-3-(4,5,7-trihydroxy-2-oxo-2H-chromene-3-yl)-4H-furo[3,2-c]chromen-4-one]	strongly suppressed	stimulate	stimulate	stimulate	not observed
C[C@H]1C[C@H]2[C@@H]3CCC4=CC(=O)C=C[C@]4(C)[C@@]3(Cl)[C@@H](O)C[C@]2(C)[C@@]1(O)C(=O)CO [beclomethasone, reference compound]	suppressed	induced moderate	induced moderate	suppressed	not observed
